Counter-ions that a name gives are not always drawn. Like-named read-outs stand apart in the source and are kept apart here.
How the values were obtained:
[1] = tested on: Mouse osteoblastic-line cells (MC3T3-El); test: Mouse Osteoblast-line Cell Proliferation (3H-thymidine); format: cell-based; settings: 0.1% FBS
Description: Pharmacology of the Ethenesulfonyl Fluoride Compounds--In Vitro Mouse Osteoblast-line Cell Proliferation
Reagents: Mouse osteoblastic-line cells (MC3T3-El) were plated in Dulbeccos Modified Eagles Medium (DMEM) with 25 mM Hepes Buffer, L-Glutamine, D-Glucose(4.5 gm/1) supplemented with 10% fetal bovine sera, Penicillin (100 units/ml) and Streptomycin ([…]) (Penicillin-Streptomycin liquid) and sodium pyruvate (10 μM final concentration). ^3 H-Thymidine (6.7 Ci/mmole) was diluted in DMEM media without FBS and filter sterilized. An aliquot of this solution was delivered to each culture well to a final concentration of ^3 H-thymidine of 0.4 μCi per well (2 μCi/ml).
Test Preparations: Solutions of the test compound were made on the day before incubation. These compounds were solubilized in either ethanol or DMSO at a concentration of 100 mM containing 0.1% FBS. The solutions were filter sterilized and then sterile serial dilutions were performed with DMEM media containing 0.1% FBS.
Osteoblast line cells were plated into 96 well culture plates, 1600 cells in 100 μL per well in DMEM with 25 mM Hepes Buffer, L-Glutamine, D-Glucose (4.5 gm/L) supplemented with 10% fetal bovine sera, Penicillin (100 units/mL) and Streptomycin (100 μg/mL) and sodium Pyruvate (10 μM final concentration). The media was replaced with DMEM containing no FBS and the cells were then incubated for an additional 24 hours. The following day, test compounds were added and screened at concentrations ranging from 10^-10 to 10^-5 M in the Presence of 0.1% FBS. The cells were then incubated an additional 20 hours. At this time 0.4 μ/Ci of 3H-thymidine was added to each culture well and the cells were incubated an additional 4 hours. The cells were then harvested with a Skatron Cell Harvester onto a glass fiber filter and washed with water, %5 trichloroacetic acid (TCA) and then 95% ethanol. The filters were then processed and counted on the LKB beta plate scintillation counter.

[2] = tested on: Rabbit Isolated Parietal Cells; test: Inhibition of 14C-aminopyrine accumulation in stimulated rabbit isolated parietal cells; format: cell-based; settings: Oryctolagus cuniculus, 37° C.
Description: Pharmacology of the Ethanesulfonamide Compounds - Rabbit Isolated Parietal Cells
Parietal cells were isolated from the fundic mucosa of rabbit stomachs by a four-stage collagenase digestion Process. The supernatant fraction from the last two stages of this Process contained the individual parietal cells. This cell suspension was centrifuged and reconstituted in a modified Hank's buffer to contain 2-3×10^6 cells/ml. […] The accumulation is stimulated by histamine and is blocked by H2 antagonists. Accumulation of ^14 C-AP is also stimulated by dibutyryl cAMP (dbcAMP). The cells were incubated with 0.5×10^6 cpm ^14 C-AP, with various concentrations of histamine or dbcAMP, […] isobutylmethylxanthine, and test compound added in a 20 μl volume of buffer or dimethylsulfoxide. The flasks were incubated in a shaking water bath at 37° C. Two 0.5 ml aliquots were then taken from each flask and cell pellets were collected by centrifugation. The pellets were solubilized with Protosol (NEN) and radioactivity determined by liquid scintillation spectrometry.
The concentration of compound required to inhibit ^14 C-AP accumulation in the stimulated parietal cell by 50% (IC50) was determined.

[3] = 14C-AP accumulation stimulated by dibutyryl cAMP, read-out: IC50 (dbcAMP)
[4] = 14C-AP accumulation stimulated by histamine, read-out: IC50 (H)

Row | Structure (SMILES) | Mouse Osteoblast-line Cell Proliferation [Expressed as a Percent of Control] ([1]; 0.001 μM) | Mouse Osteoblast-line Cell Proliferation [Expressed as a Percent of Control] ([1]; 0.01 μM) | Mouse Osteoblast-line Cell Proliferation [Expressed as a Percent of Control] ([1]; 0.1 μM) | Mouse Osteoblast-line Cell Proliferation [Expressed as a Percent of Control] ([1]; 1.0 μM) | Mouse Osteoblast-line Cell Proliferation [Expressed as a Percent of Control] ([1]; 10 μM) | IC50 [2, 3] | IC50 [2, 4]
1 | CCOC(=O)c1ccc(NCCS(=O)(=O)F)cc1 [Example 16] | 132.8% of Control | 142.1% of Control | 127.5% of Control | 136.5% of Control | 154.7% of Control | – | –
2 | O=S(=O)(F)CCNc1ccccc1 [Example 18, Monohydrochloride] | 132.6% of Control | 125.6% of Control | 108.1% of Control | 93.1% of Control | 95.9% of Control | – | –
3 | CC(C)Oc1ccc(NCCS(=O)(=O)NCCCOc2cccc(CN3CCCCC3)c2)cc1 [Example 7, 2-[[4-(1-Methylethony)Phenyl]amino]-N-[3-[3-(piperidinomethyl)Phenoxy]propyl]ethanesulfonamide] | – | – | – | – | – | 2000 nM | 840 nM
4 | COc1ccc(NCCS(=O)(=O)F)cc1OC [Example 22, Monohydrochloride] | 143.6% of Control | 133.6% of Control | 116.4% of Control | 113.5% of Control | 106.7% of Control | – | –
5 | COc1ccc(CCN(C)CCS(=O)(=O)F)cc1OC [Example 24, N-[2-(Fluorosulfonyl)ethyl]-3,4-dimethoxy-N-methylphenethylamine] | 150.4% of Control | 143.9% of Control | 153.5% of Control | 123.3% of Control | 106.7% of Control | – | –
6 | O=S(=O)(CCNc1ccc(Br)cc1)NCCCOc1cccc(CN2CCCCC2)c1 [Example 5] | – | – | – | – | – | 860 nM | 370 nM
7 | CCCCCOc1ccc(NCCS(=O)(=O)NCCCOc2cccc(CN3CCCCC3)c2)cc1 [Example 8, 2-[(4-Pentoxyphenyl)amino]-N-[3-[3-(piperidinomethyl)phenoxy]propyl]ethanesulfonamide] | – | – | – | – | – | 370 nM | 330 nM
8 | CCCCc1ccc(NCCS(=O)(=O)F)cc1 [Example 19, Monohydrochloride] | 109.0% of Control | 143.3% of Control | 159.8% of Control | 97.4% of Control | 115.7% of Control | – | –
9 | CC(C)c1ccc(NCCS(=O)(=O)F)cc1 [Example 27, Hydrate] | 137.2% of Control | 130.0% of Control | 106.9% of Control | 110.8% of Control | 97.7% of Control | – | –
10 | Cc1ccc(NCCS(=O)(=O)F)cc1 [Example 21] | 131.5% of Control | 132.0% of Control | 126.6% of Control | 119.9% of Control | 111.8% of Control | – | –
11 | O=S(=O)(F)CCNc1ccc(C(F)(F)F)cc1 [Example 23] | 108.1% of Control | 97.9% of Control | 107.3% of Control | 120.8% of Control | 111.7% of Control | – | –
12 | CC(C)(C)c1ccc(NCCS(=O)(=O)F)cc1 [Example 26, Hydrate] | 152.8% of Control | 165.7% of Control | 89.9% of Control | 102.7% of Control | 93.2% of Control | – | –
13 | O=S(=O)(F)CCNc1ccc(F)cc1 [Example 20, Monohydrochloride] | 133.4% of Control | 111.8% of Control | 110.2% of Control | 116.9% of Control | 112.3% of Control | – | –
14 | COc1ccc(NCCS(=O)(=O)F)cc1 [Example 17, Monohydrochloride] | 165.5% of Control | 148.9% of Control | 129.1% of Control | 115.9% of Control | 108.8% of Control | – | –
15 | O=S(=O)(CCNc1ccccc1)NCCCOc1cccc(CN2CCCCC2)c1 [Example 6, 2-(Phenylamino)-N-[3-[3-(piperidinomethyl)phenoxy]propyl]ethanesulfonamide] | – | – | – | – | – | 10000 nM | 1000 nM
16 | CCc1ccc(NCCS(=O)(=O)F)cc1 [Example 25, Monohydrochloride] | 139.4% of Control | 123.3% of Control | 100.9% of Control | 110.6% of Control | 90.0% of Control | – | –

Source: US5112866A, “Ethanesulfonamide derivatives” (Ortho Pharmaceutical Corporation, priority 1989, dated 1992)
